Source: ChEMBL document CHEMBL1201862, “PubChem BioAssay data set” (2004)
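96-well plates; 48 h exposure; 5 concentrations. Endpoints by linear interpolation between flanking doses. Not reached: highest tested concentration assigned. The concentration for 50% growth inhibition is given as GI50.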 The source made the active and inactive calls. Cut-off read from the data, not from the text of the source: active = GI50 up to about 1.1 µM and inactive = higher.

Key:
Experiment in all cases: NCI anticancer screen, dose series, 48 h
[1] = system: A498
[2] = system: UACC-62
[3] = system: A549
[4] = system: OVCAR-5
[5] = system: SF-539
[6] = system: MOLT-4
[7] = system: HCT-15
[8] = system: SW-620
[9] = system: CCRF-CEM
[10] = system: IGROV-1
[11] = system: BT-549
[12] = system: Malme-3M
[13] = system: NCI-H460
[14] = system: M14
[15] = system: HCT-116
[16] = system: ACHN
[17] = system: SK-MEL-5
[18] = system: KM12
[19] = system: HOP-62
[20] = system: NCI-H23

Structure (SMILES)	GI50 [1]	GI50 [2]	GI50 [3]	GI50 [4]	GI50 [5]	GI50 [6]	GI50 [7] [µM]	GI50 [8]	GI50 [9]	GI50 [10]	GI50 [11]	GI50 [12]	GI50 [13]	GI50 [14]	GI50 [15]	GI50 [16]	GI50 [17]	GI50 [18]	GI50 [19]	GI50 [20]
CCOc1ccc(-n2c(=O)c3nn4c(=O)n(-c5ccc(OCC)cc5)c(=O)c4nn3c2=O)cc1	18.6 µM (inactive)	> 100 µM (inactive)	> 100 µM (inactive)	> 100 µM (inactive)	> 100 µM (inactive)	> 100 µM (inactive)	> 100	> 100 µM (inactive)	> 10 µM (inactive)	> 100 µM (inactive)	64.6 µM (inactive)	> 100 µM (inactive)	> 100 µM (inactive)	> 100 µM (inactive)	> 100 µM (inactive)	> 100 µM (inactive)	> 100 µM (inactive)	> 100 µM (inactive)	77.8 µM (inactive)	> 100 µM (inactive)
COc1ccc(Cc2n[nH]c(Nc3ccc(Br)cc3)nc2=O)cc1OC	> 100 µM (inactive)	65.8 µM (inactive)	> 100 µM (inactive)	> 100 µM (inactive)	> 100 µM (inactive)	43.1 µM (inactive)	> 100	> 100 µM (inactive)	59.2 µM (inactive)	> 100 µM (inactive)	27 µM (inactive)	47.2 µM (inactive)	> 100 µM (inactive)	> 89.7 µM (inactive)	64.3 µM (inactive)	> 100 µM (inactive)	> 87.9 µM (inactive)	36.6 µM (inactive)	42.9 µM (inactive)	> 100 µM (inactive)
CCCCCCCCCCCCCCCCCCNc1ccn(C2OC(COP(=O)(O)OC3CC(n4cc(F)c(=O)[nH]c4=O)OC3COP(=O)(O)OCC3OC(n4ccc(N)nc4=O)C(O)C3O)C(O)C2O)c(=O)n1 (stereo not given)	20.8 µM (inactive)	1.1 µM (active)	0.0906 µM (active)	36.5 µM (inactive)	< 0.01 µM (active)	0.611 µM (active)	12.2	16.2 µM (inactive)	0.0206 µM (active)	15.2 µM (inactive)	15.1 µM (inactive)	> 46.9 µM (inactive)	< 0.0129 µM (active)	0.453 µM (active)	1.03 µM (active)	0.143 µM (active)	3.62 µM (inactive)	14.4 µM (inactive)	10.4 µM (inactive)	2.92 µM (inactive)
